In US20250152609A1, “SALICYLIC ACID COMPOSITIONS AND USES THEREOF” (priority 2022, published 2025):
≈ marks a conversion by molar mass, not a printed value. Read-outs that look alike come from different tables or passages of the source.

Legend:
[1] = Analysis of salicylic acid and its metabolites in urines of treated mice (HPLC-MRM-MS); type: in vivo; conditions: for share of ingested SA found in the urines in this form: Filipendula ulmaria extract with 1.3% SA, total 40 mg in 8 doses over 24 h, oral
Description: A: Comparison of RT from analytical standards of salicylic acid (SA) (1) and its metabolites […] (DHBA) (2) and salicyluric acid (SUA) (3) and peaks found in urine samples collected from the group treated with Filipendula ulmaria extract (Fil). Analysis was performed on a SunFire™ C18 ([…], 3.0 mm×150 mm) column (Waters). 5% MeCN (A) and MeCN (B) both containing 0.1% of formic acid were used as mobile phase. A gradient of 0 to 100% B in 20 min was applied at a flow rate of 0.8 mL/min. B: Concentration, amounts (in samples collected over a 3-hour-period) and cumulative amounts of salicylic acid (SA) (1) and its metabolites 2,3-dihydroxybenzoic acid (DHBA) (2) and salicyluric acid (SUA) (3) found in urine samples collected from groups treated with Filipendula ulmaria extract (F). Cumulative amounts are the cumulated amounts of the respective compounds in the urine over time up to the indicated timepoint. Numbers on x-axis indicate collection time. Analysis was performed by HPLC-MRM-MS using the chromatographic conditions described in A.
The urines collected from control groups as described in Example 3 were compared against urines collected from mice treated with different combinations of plant extracts. The urines were analyzed using HPLC-UV/MS on a SunFire C18 column column. 5% MeCN (A) and MeCN (B) both containing 0.1% of formic acid were used as mobile phase. A gradient of 0 to 100% B in 20 min was applied at a flow rate of 0.8 mL/min. MS scans were recorded in positive and negative ion modes (ESI+/−). Major additional peaks in the groups treated with a mixture of Filipendula ulmaria-Epilobium parviflorum were identified as salicylic acid (SA) (1), 2,3-dihydroxybenzoic acid (DHBA) (2), and salicyluric acid (SUA) (3). FIG. 3A compares the RT from analytical standards of salicylic acid (SA) (1) and its metabolites salicyluric acid (SUA) ([…]) and 2,3-dihydroxybenzoic acid (DHBA) (2), and peaks found in urine samples collected from groups treated with Filipendula extracts. The exact mass of the three molecules was confirmed using high-resolution mass spectrometry. Further, the three identified metabolites were quantified in the urine samples by MRM—with the following transitions (m z): 136.5→65.0, 136.5→92.9 (SA); 152.9→108.9, 152.9→80.9 (DHBA); 194.0→150.0, 194.0→92.9 (SUA) and pure analytical standards that were diluted in urine from negative controls for the calibration curve.
The amounts of SA, SUA et DHBA were quantified in the urine of mice after absorption of an extract of Filipendula ulmaria containing 1.3% of SA at a total dose of 40 mg divided in 8 equal doses over 24 h as described above (Example 3, in-vivo efficacy studies).

[2] = test system: E. coli CFT073 adhesion to human urinary bladder cells (T24); test: In vitro adhesion test (ADH): adhesion of E. coli to human bladder cells, cfu plate count; type: cell-based; conditions: for reduction of adhesion of E. coli CFT073 on urinary bladder cells: 1 h, adhesion <50% of control = significant, FIG. 1C
Description: In Vitro Adhesion Test (ADH)—Host-Pathogen-Interaction Assessed by In Vitro Adhesion to Human Cells Adhesion of E. coli to bladder epithelium was established in cell culture. Upon exposure to E. coli an epithelial cell detachment was observed, in a manner similar to in vivo exfoliation. The test was miniaturized by growing the epithelium cell cultures in 96-well plates instead of the classical 24-well plates.
The test samples were added prior to the start of the adhesion process. Bladder cells grown to confluence in 96-well plates were exposed to E. coli (50 μL of E. coli at 1.4*10^7 cfu/mL in each well) for 1 h. After 1 h, non-adhered E. coli were rinsed off and the adhered E. coli were detached and enumerated by plate counting colony-forming-units (cfu). Enumeration was automatized using a spiral plate count apparatus which further improved the test-variability.
The E. coli adhesion test was run in absence (given as 100% adhesion) and presence of different concentrations of the agents. […] Human cytotoxicity measurements of the mitochondrial activity (MTT) excluded side-effects of the agents.
Results are presented in FIG. 1C where relative adhesion (ADH) is expressed in percent (no inhibition control=100%; buffer was used instead of the treatments). All adhesion values<50% are defined as a significant inhibition.
Anti-adhesive effect is measured in vitro (standard method) using centrifuged extracts (Fu1) of Filipendula ulmaria (F) and Epilobium parviflorum (E) using human epithelial bladder cells (T24 ATCC® HTB-4™ Homo sapiens urinary bladder cell lines).

[3] = test system: E. coli; test: In vitro antibacterial assay (MIC), E. coli growth in solution in 96-well plates, plate counting; type: cell-based; conditions: for MIC: Escherichia coli
Description: E. coli growth in solution was measured in 96-well plates. Absence and presence of different concentrations of the test agent during exponential growth determined the MIC (minimal inhibitory concentration) value. E. coli enumeration was by the plate-counting method (ufc) as described above.

[4] = test system: E. coli CFT073; test: In vivo UTI mouse model: living E. coli in bladder homogenates (bladder adhesion); parameters: species or system mice
Excerpt: (§1) An in vivo test of UTI (urinary tract infection) was established and implemented for the identification of active plant extracts and compounds. […] which were age matched females were adapted to the clean, non-septic laboratory conditions. The experiment started with a 2 days nutrition enriched by glucose in order to facilitate the subsequent UTI infection. Each compound, or plant extract was then applied at various concentrations by 8 consecutive intestinal ingestions by gavage-devices over the duration of 24 h. Each ingestion comprised a volume of 100 μL solution. During these 24 h the mice were hold in metabolic cages. The urine was collected every 3 h to analyze diuresis effects. For the subsequent UTI infection*, the isolate E. coli CFT073 (commercially available at DSM, originating from human UTI) was applied trans-urethral into the bladder and incubated in vivo for a 3 h duration and free movements in normal cages. Mice were euthanized and living E. coli were enumerated in bladder homogenates (homogenization of 12 bladder for living bacteria counting (cfu)), and organ morphology were assessed by histology microscopy. *UTI Infection with 50 μL of E. coli (CFT073) containing […] inoculated in the bladder (in another experiment, the in vivo infection was run similarly, but with slightly less germs 3.3×10^6 or 5×10^6 germs per inoculation).
The in-vivo anti-adhesion effect of the various substances and extracts of the invention were tested in vivo using a mouse model as described above by giving orally 100 μL of test substance every 3 hours for 24 h prior to inoculating E. coli in the bladder 3 h before measuring E. coli in the bladder. At the end of each assay, mice are euthanized, and their bladder homogenized for E. coli measurements.

[5] = Diuretic effects: urine collected over 24 h in the mouse model; type: in vivo; conditions: 68.8 μg/100 μL orally every 3 h; urine of 6 mice over 24 h
Excerpt: as §1, with “For the subsequent UTI infection*, the isolate E. coli CFT073 (commercially available at DSM, originating from human UTI) was applied trans-urethral into the bladder and incubated in vivo for a 3 h duration and free movements in normal cages.” left out
The urines were collected from control groups and from mice treated with different agents. […] Each value has been calculated from the total urine collected from 6 mice.

[6] = CHHeNCrL (so in the source); i.e. C3H/HeNCrl), mouse, in vivo
[7] = E. coli, 24 h exponential growth, pure substances and cranberry control
[8] = as given in the legend of FIG. 1F, read-out: prevention of growth of E. coli (MIC)

| Compound | cumulated amounts present in the urine [1, 6] [µg] | reduction of adhesion of E. coli CFT073 on urinary bladder cells ([2]; 2.5 mg/mL) | reduction of adhesion of E. coli CFT073 on urinary bladder cells ([2]; 5 mg/mL) | Observation of microbial culture ([3]; 0.3125 mg/mL, 24 h) | Observation of microbial culture ([3]; 0.625 mg/mL, 24 h) | Observation of microbial culture ([3]; 1.25 mg/mL, 24 h) | Observation of microbial culture ([3]; 2.5 mg/mL, 24 h) | Observation of microbial culture ([3]; 5 mg/mL, 24 h) | MIC (minimal inhibitory concentration) [3, 7] | MIC [3, 8] [µg/mL] | share of ingested SA found in the urines in this form ([1]; mice) [%] | also measured |
| --- | --- | --- | --- | --- | --- | --- | --- | --- | --- | --- | --- | --- |
| O=C(O)c1cccc(O)c1O [2,3-Dihydroxybenzoic acid, 2,3-dihydroxybenzoic acid] | 68 | an effect | an effect | growth | growth * | no growth | no growth | no growth | MIC at 1.25 mg/mL | 2500 (≈ 16.2 mM) | – | MIC (minimal inhibitory concentration) ([3]; E. coli, 24 h exponential growth, pure substances and cranberry control, listed as 2): 5000 µg/mL (≈ 32.4 mM) |
| O=C(O[C@H]1[C@@H]2OC(=O)c3cc(O)c(O)c(O)c3-c3c4cc(c(O)c3O)Oc3c(cc(O)c(O)c3O)C(=O)O[C@H]3C(O)O[C@@H]5COC(=O)c6cc(O)c(O)c(O)c6-c6c(cc(c(O)c6O)Oc6c(cc(O)c(O)c6O)C(=O)O[C@H]1C(O)O[C@@H]2COC4=O)C(=O)O[C@H]5[C@@H]3OC(=O)c1cc(O)c(O)c(O)c1)c1cc(O)c(O)c(O)c1 (stereo partly shown) [Oenothein B] | – | – | – | – | – | – | – | – | MIC at 1.3 mg/mL | – | – | identification of the compound and its metabolites by LC-MS in the collected urine samples ([1]; mouse, in vivo, po): not identified; Observation of microbial culture ([3]; 0.65 mg/mL): growth; Observation of microbial culture ([3]; 1.3 mg/mL): no growth; Observation of microbial culture ([3]; 1.9 mg/mL): no growth; Observation of microbial culture ([3]; 2.6 mg/mL): no growth; Observation of microbial culture ([3]; 3.25 mg/mL): no growth; MIC ([3]; 24 h, read-out: MIC (minimal inhibitory concentration)): 1300 µg/mL (≈ 0.829 mM); MIC ([3]; read-out: prevention of growth of E. coli (MIC)): 1300 µg/mL (≈ 0.829 mM); number of adhered bacteria E. coli lower than in the controls ([4]; 0.065 mg/100 mL, inoculation 3.28×5×10^6 cfu): 75.12% |
| O=C(O)c1ccccc1O [Salicylic acid, salicylic acid] | 84 | adhesion reduction efficacy | adhesion reduction efficacy | growth | growth | growth | growth | no growth | MIC at 5 mg/mL | 5000 (≈ 36.2 mM) | 5.4 | reduction of adhesion of E. coli CFT073 on urinary bladder cells ([2]; 1.25 mg/mL): adhesion reduction efficacy; concentration necessary for inhibition of E. coli adhesion to human bladder epithelium ([2]; for 1 hour): 2.5 mg/mL; MIC ([3]; 24 h, E. coli, 24 h exponential growth, pure substances and cranberry control, read-out: MIC (minimal inhibitory concentration)): 5000 µg/mL (≈ 36.2 mM); inhibitory effect on the bacterial infection (adhesion) ([4]; 0.05 mg/100 μL by gavage 8 times in 24 h, 5×10^7 cfu E. coli trans-urethral, n=6 mice): −60%; inhibitory effect on the bacterial infection (adhesion) ([4]; 3.3×10^6 cfu trans-urethral): −61.3% |
| O=C(O)CNC(=O)c1ccccc1O [Salicyluric acid, salicyluric acid] | – | – | – | growth | growth | growth | growth * | no growth | MIC at 5 mg/mL | 2500 (≈ 12.8 mM) | 32.0 | cumulated amounts present in the urine ([1]; mice, FIG. 3B): 707 µg; MIC (minimal inhibitory concentration) ([3]; E. coli, 24 h exponential growth, pure substances and cranberry control, listed as 3): 1250 µg/mL (≈ 6.4 mM) |
| quercetin-4′-O-glucoside [Spiraeoside] | – | – | – | – | – | – | – | – | – | – | – | % variation versus Negative Control (water), urine [5]: −9.10%; % variation versus Positive Control (Cranberry), urine [5]: −4.20% |
